Test results from patent EP0573652A1, “REMEDY FOR RENAL DISEASES” (FUJISAWA PHARMACEUTICAL CO., LTD., priority 1991, dated 1992).
Read-outs that look alike come from different tables or passages of the source.

Tests used:
Acute toxicity test = assay: Acute toxicity test; design: species or system rats (Crj:CD(SD) strain); conditions: Crj:CD(SD), rat, in vivo, iv, intravenously, observed for 14 days, probit method, read-out: LD₅₀
Description: Five rats (Crj:CD(SD) strain) of either sex were used per group. Solutions of the test compound in physiological saline were administered to rats intravenously. The rats were then observed for 14 days. The LD₅₀ values were calculated by the probit method.

cynomolgus monkeys [1] = assay: Diuretic effects (urine volume, urinary electrolytes, renal plasma flow, glomerular filtration rate in anesthetized monkeys); type: in vivo; conditions: at 15 min. after dosing, Control : 100%; for Increasing % of glomerular filtration rate: calculated from inulin concentrations; for Increasing % of renal plasma flow: calculated from paraaminohypuric acid concentrations
Description: Female cynomolgus monkeys weighing 3.2 - 3.9 kg were anesthetized with sodium pentobarbital (20 mg/kg, i.v.) and were maintained at a stable anesthetic level by continuous infusion of the anesthetic at a rate of 4 mg/kg/hr, and then right saphenous vein was catheterized for intravenous infusion. […] Under monitoring blood pressure, urine samples were taken from bladder by catheter and blood samples were taken from right brachial vein. After 90 min. when urine volume, blood, paraaminohypuric acid and inulin concentrations became stable, blood and urine samples were taken to measure concentrations of paraaminohypuric acid and inulin 45 min. before and 15, 30, 45 and 60 min. after dosing with the test compound. Urine volume and urinary electrolytes were measured and the renal plasma flow and glomerular filtration rate values were calculated from respective paraaminohypuric acid and inulin concentrations in the blood and urine samples.

cynomolgus monkeys [2] = assay: Effects on increasing renal blood flow (anesthetized, furosemide-pretreated monkeys, electromagnetic blood flowmeter); type: in vivo; conditions: Dose 0.32 mg/kg intravenously; anesthetized cynomolgus monkeys given furosemide
Description: Male and female cynomolgus monkeys weighing 2.0-4.8 kg were fed with conventional diet were given furosemide 10 mg/kg subcutaneously and 5 mg/kg intravenously on the previous day and the day of dosing with the test compound respectively. The animals were anesthetized with sodium pentobarbital (20 mg/kg, i.v.) and were maintained at a stable anesthetic level by continuous infusion of the anesthetic at a rate of 6 mg/kg/hr. After fixing the animals on the bench at 37°C, right femoral artery was catheterized for recording of the mean arterial blood pressure using a pressure transducer and left femoral vein was also catheterized for injection of the drug. Left renal artery was installed with an electromagnetic probe for recording renal blood flow using an electromagnetic blood flowmeter. When blood pressure, heart rate and renal blood flow, became sufficiently stable, the test compound dissolved in physiological saline was intravenously given at a rate of 0.2 ml/kg.

SMILES | LD50 at 14 days (Acute toxicity test; Female rats) | LD50 at 14 days (Acute toxicity test; Male rats) | Increasing % of Cl⁻ excretion (cynomolgus monkeys [1]; Dose 1.0 mg/kg) | Increasing % of K⁺ excretion (cynomolgus monkeys [1]; Dose 1.0 mg/kg) | Increasing % of Na⁺ excretion (cynomolgus monkeys [1]; Dose 1.0 mg/kg) | Increasing % of urine volume (cynomolgus monkeys [1]; Dose 1.0 mg/kg) | Increasing % of glomerular filtration rate (cynomolgus monkeys [1]; Dose 1.0 mg/kg) | Increasing % of renal plasma flow (cynomolgus monkeys [1]; Dose 1.0 mg/kg) | Maximum decreasing % of renal vascular resistance (cynomolgus monkeys [2]) | Maximum increasing % of renal blood flow (cynomolgus monkeys [2]) | Increasing % of glomerular filtration rate (cynomolgus monkeys [1]; Dose 3.2 mg/kg) | Increasing % of Cl⁻ excretion (cynomolgus monkeys [1]; Dose 3.2 mg/kg) | Increasing % of K⁺ excretion (cynomolgus monkeys [1]; Dose 3.2 mg/kg) | Increasing % of Na⁺ excretion (cynomolgus monkeys [1]; Dose 3.2 mg/kg) | Increasing % of urine volume (cynomolgus monkeys [1]; Dose 3.2 mg/kg) | Increasing % of renal plasma flow (cynomolgus monkeys [1]; Dose 3.2 mg/kg)
CC(C)CC[C@H](O)[C@H](CC1CCCCC1)NC(=O)[C@H](Cc1c[nH]cn1)N(C)C(=O)[C@H](Cc1ccccc1)OC(=O)N(C)CCN(C)C(=O)N1CCOCC1.Cl [(2), 2(S)-[N^α-[2(S)-[N-methyl-N-[2-{N-(morpholinocarbonyl)-N-methylamino)ethyl]aminocarbonyloxy]-3-phenylpropionyl]-N^α-methyl-L-histidyl]amino-1-cyclohexyl-3(S)-hydroxy-6-methylheptane hydrochloride] | 69 mg/kg | 55 mg/kg | 466% | 169% | 205% | 202% | 156% | 169% | +35.5% | +33.8% | – | – | – | – | – | –
C[C@H](CS)C(=O)N1CCC[C@H]1C(=O)O [(A), Captopril, reference compound] | – | – | – | – | – | – | – | – | +11.5% | – | 114% | – | – | – | – | –
CC(C)CC[C@H](O)[C@H](CC1CCCCC1)NC(=O)[C@H](Cc1c[nH]cn1)N(C)C(=O)[C@H](Cc1ccccc1)OC(=O)N(C)CCC(=O)N1CCOCC1.Cl [(1), 2(S)-[N^α-[2(S)-{N-(2-morpholinocarbonylethyl)-N-methylaminocarbonyloxy}-3-phenylpropionyl]-N^α-methyl-L-histidyl]amino-1-cyclohexyl-3(S)-hydroxy-6-methylheptane hydrochloride] | 93.3 mg/kg | 81.2 mg/kg | – | – | – | – | – | – | +19.3% | +17.1% | 122% | 417% | 135% | 223% | 259% | 149%
